From PubChem BioAssay (NCI)
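These data come from cells grown in 96-well plates and exposed to compound for 48 hours at five concentrations. At the GI50, growth is halved. TGI marks complete inhibition of growth.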

Assays:
Test in all cases: NCI-60 cell line screen, 48 h
786-0 renal = test system: 786-0 renal
A498 renal = test system: A498 renal
A549 NSCLC = test system: A549 NSCLC
ACHN renal = test system: ACHN renal
BT-549 breast = test system: BT-549 breast
CAKI-1 renal = test system: CAKI-1 renal
CCRF-CEM leukemia = test system: CCRF-CEM leukemia
COLO 205 colon = test system: COLO 205 colon
DU-145 prostate = test system: DU-145 prostate
EKVX NSCLC = test system: EKVX NSCLC
HCC-2998 colon = test system: HCC-2998 colon
HCT-116 colon = test system: HCT-116 colon
HCT-15 colon = test system: HCT-15 colon
HL-60(TB) leukemia = test system: HL-60(TB) leukemia
HOP-62 NSCLC = test system: HOP-62 NSCLC
HS 578T breast = test system: HS 578T breast
HT29 colon = test system: HT29 colon
IGROV1 ovarian = test system: IGROV1 ovarian
K-562 leukemia = test system: K-562 leukemia
KM12 colon = test system: KM12 colon
LOX IMVI melanoma = test system: LOX IMVI melanoma
M14 melanoma = test system: M14 melanoma
MALME-3M melanoma = test system: MALME-3M melanoma
MCF7 breast = test system: MCF7 breast
MDA-MB-231 breast = test system: MDA-MB-231 breast
MDA-MB-435 = test system: MDA-MB-435
MOLT-4 leukemia = test system: MOLT-4 leukemia
NCI-H226 lung = test system: NCI-H226 lung
NCI-H23 lung = test system: NCI-H23 lung
NCI-H460 lung = test system: NCI-H460 lung
NCI-H522 lung = test system: NCI-H522 lung
NCI/ADR-RES ovarian = test system: NCI/ADR-RES ovarian
OVCAR-3 ovarian = test system: OVCAR-3 ovarian
OVCAR-4 ovarian = test system: OVCAR-4 ovarian
OVCAR-5 ovarian = test system: OVCAR-5 ovarian
OVCAR-8 ovarian = test system: OVCAR-8 ovarian
PC-3 prostate = test system: PC-3 prostate
RPMI-8226 leukemia = test system: RPMI-8226 leukemia
RXF 393 renal = test system: RXF 393 renal
SF-268 CNS = test system: SF-268 CNS
SF-295 CNS = test system: SF-295 CNS
SF-539 CNS = test system: SF-539 CNS
SK-MEL-2 melanoma = test system: SK-MEL-2 melanoma
SK-MEL-28 melanoma = test system: SK-MEL-28 melanoma
SK-MEL-5 melanoma = test system: SK-MEL-5 melanoma
SK-OV-3 ovarian = test system: SK-OV-3 ovarian
SN12C renal = test system: SN12C renal
SNB-19 CNS = test system: SNB-19 CNS
SNB-75 CNS = test system: SNB-75 CNS
SR leukemia = test system: SR leukemia
SW-620 colon = test system: SW-620 colon
T-47D breast = test system: T-47D breast
TK-10 renal = test system: TK-10 renal
U251 CNS = test system: U251 CNS
UACC-257 melanoma = test system: UACC-257 melanoma
UACC-62 melanoma = test system: UACC-62 melanoma
UO-31 renal = test system: UO-31 renal

`COc1ccc(CN2CCc3c(Sc4ccccc4)nc(N)nc3C2=O)c(OC)c1` was tested, and the GI50 (786-0 renal) was 7.62 µM, the TGI (786-0 renal) was > 100 µM and the GI50 (A498 renal) was 7.22 µM. It also gave a TGI (A498 renal) of 57.7 µM, a GI50 (A549 NSCLC) of 9.49 µM and a TGI (A549 NSCLC) of 45.8 µM. It also gave a GI50 (ACHN renal) of 7.25 µM, a TGI (ACHN renal) of 52 µM and a GI50 (BT-549 breast) of 2.3 µM. The TGI (BT-549 breast) was 10.1 µM, the GI50 (CAKI-1 renal) was 3.4 µM and the TGI (CAKI-1 renal) was 18.3 µM. The GI50 (CCRF-CEM leukemia) was 4.53 µM, the TGI (CCRF-CEM leukemia) was 52.9 µM and the GI50 (COLO 205 colon) was 14.8 µM. The TGI (COLO 205 colon) was 47.9 µM, the GI50 (DU-145 prostate) was 8.57 µM and the TGI (DU-145 prostate) was 32.4 µM. It also gave a GI50 (EKVX NSCLC) of 4.32 µM, a TGI (EKVX NSCLC) of 19.9 µM and a GI50 (HCC-2998 colon) of 14.1 µM. The TGI (HCC-2998 colon) was 30.4 µM, the GI50 (HCT-116 colon) was 3.9 µM and the TGI (HCT-116 colon) was 36.6 µM. It also gave a GI50 (HCT-15 colon) of 8.32 µM, a TGI (HCT-15 colon) of 39.2 µM and a GI50 (HL-60(TB) leukemia) of 1.56 µM. The TGI (HL-60(TB) leukemia) was 5.32 µM, the GI50 (HOP-62 NSCLC) was 18 µM and the TGI (HOP-62 NSCLC) was 73.4 µM. For the same molecule, the GI50 (HS 578T breast) was 16.3 µM, the TGI (HS 578T breast) was > 100 µM and the GI50 (HT29 colon) was 7.61 µM. For the same molecule, the TGI (HT29 colon) was 23.6 µM, the GI50 (IGROV1 ovarian) was 11 µM and the TGI (IGROV1 ovarian) was 28.9 µM. The GI50 (K-562 leukemia) was 4.3 µM, the TGI (K-562 leukemia) was > 100 µM and the GI50 (KM12 colon) was 8.67 µM. The TGI (KM12 colon) was 32.7 µM, the GI50 (LOX IMVI melanoma) was 7.92 µM and the TGI (LOX IMVI melanoma) was 24.5 µM. The GI50 (M14 melanoma) was 9.61 µM, the TGI (M14 melanoma) was 28.1 µM and the GI50 (MALME-3M melanoma) was 1.58 µM. For the same molecule, the TGI (MALME-3M melanoma) was 8.87 µM, the GI50 (MCF7 breast) was 5.65 µM and the TGI (MCF7 breast) was 75.9 µM. It also gave a GI50 (MDA-MB-231 breast) of 11 µM, a TGI (MDA-MB-231 breast) of 76.9 µM and a GI50 (MDA-MB-435) of 3.57 µM. The TGI (MDA-MB-435) was 16.3 µM, the GI50 (MOLT-4 leukemia) was 3 µM and the TGI (MOLT-4 leukemia) was 16.1 µM. It also gave a GI50 (NCI-H226 lung) of 8.55 µM, a TGI (NCI-H226 lung) of 27.1 µM and a GI50 (NCI-H23 lung) of 4.06 µM. For the same molecule, the TGI (NCI-H23 lung) was 38.4 µM, the GI50 (NCI-H460 lung) was 9.06 µM and the TGI (NCI-H460 lung) was > 100 µM. It also gave a GI50 (NCI-H522 lung) of 3.05 µM, a TGI (NCI-H522 lung) of 17.7 µM and a GI50 (NCI/ADR-RES ovarian) of 4.13 µM. It also gave a TGI (NCI/ADR-RES ovarian) of 29.9 µM, a GI50 (OVCAR-3 ovarian) of 4.25 µM and a TGI (OVCAR-3 ovarian) of 25.7 µM. The GI50 (OVCAR-4 ovarian) was 4.57 µM, the TGI (OVCAR-4 ovarian) was 18.3 µM and the GI50 (OVCAR-5 ovarian) was 39 µM. For the same molecule, the TGI (OVCAR-5 ovarian) was > 100 µM, the GI50 (OVCAR-8 ovarian) was 6.23 µM and the TGI (OVCAR-8 ovarian) was 30.5 µM. It also gave a GI50 (PC-3 prostate) of 4.41 µM, a TGI (PC-3 prostate) of 29.1 µM and a GI50 (RPMI-8226 leukemia) of 1.89 µM. The TGI (RPMI-8226 leukemia) was 7.26 µM, the GI50 (RXF 393 renal) was 2.65 µM and the TGI (RXF 393 renal) was 9.74 µM. For the same molecule, the GI50 (SF-268 CNS) was 6.21 µM, the TGI (SF-268 CNS) was 26 µM and the GI50 (SF-295 CNS) was 8.35 µM. The TGI (SF-295 CNS) was 22.7 µM, the GI50 (SF-539 CNS) was 14.4 µM and the TGI (SF-539 CNS) was 36.8 µM. The GI50 (SK-MEL-2 melanoma) was 10.1 µM, the TGI (SK-MEL-2 melanoma) was 32.6 µM and the GI50 (SK-MEL-28 melanoma) was 8.91 µM. The TGI (SK-MEL-28 melanoma) was 26.8 µM, the GI50 (SK-MEL-5 melanoma) was 7.35 µM and the TGI (SK-MEL-5 melanoma) was 22.5 µM. For the same molecule, the GI50 (SK-OV-3 ovarian) was 21.4 µM, the TGI (SK-OV-3 ovarian) was 84.6 µM and the GI50 (SN12C renal) was 8.82 µM. The TGI (SN12C renal) was > 100 µM, the GI50 (SNB-19 CNS) was 15.4 µM and the TGI (SNB-19 CNS) was 55.3 µM. The GI50 (SNB-75 CNS) was 5.58 µM, the TGI (SNB-75 CNS) was 19.7 µM and the GI50 (SR leukemia) was 2.95 µM. It also gave a TGI (SR leukemia) of 22.6 µM, a GI50 (SW-620 colon) of 6.15 µM and a TGI (SW-620 colon) of 41.2 µM. The GI50 (T-47D breast) was 3.99 µM, the TGI (T-47D breast) was 34.5 µM and the GI50 (TK-10 renal) was 5 µM. For the same molecule, the TGI (TK-10 renal) was 19.2 µM, the GI50 (U251 CNS) was 8.01 µM and the TGI (U251 CNS) was 27.4 µM. It also gave a GI50 (UACC-257 melanoma) of 5.99 µM, a TGI (UACC-257 melanoma) of 22.2 µM and a GI50 (UACC-62 melanoma) of 6.78 µM. It also gave a TGI (UACC-62 melanoma) of 21.4 µM, a GI50 (UO-31 renal) of 1.45 µM and a TGI (UO-31 renal) of 12.8 µM.
